Experimental findings from paper PMC11167047 (Cell Death Discovery, 2024) are described below.

The structures appear in SMILES notation.

Assay in all cases: kinome screen (33PanQinase)
Holding throughout (assay type): biochemical

The target in one experiment is T1, CHK1 (Homo sapiens, UniProt O14757).
T1 construct: purchased Reaction Biology Europe GmbH (formerly ProQinase)
T1 sequence (O14757 1-476): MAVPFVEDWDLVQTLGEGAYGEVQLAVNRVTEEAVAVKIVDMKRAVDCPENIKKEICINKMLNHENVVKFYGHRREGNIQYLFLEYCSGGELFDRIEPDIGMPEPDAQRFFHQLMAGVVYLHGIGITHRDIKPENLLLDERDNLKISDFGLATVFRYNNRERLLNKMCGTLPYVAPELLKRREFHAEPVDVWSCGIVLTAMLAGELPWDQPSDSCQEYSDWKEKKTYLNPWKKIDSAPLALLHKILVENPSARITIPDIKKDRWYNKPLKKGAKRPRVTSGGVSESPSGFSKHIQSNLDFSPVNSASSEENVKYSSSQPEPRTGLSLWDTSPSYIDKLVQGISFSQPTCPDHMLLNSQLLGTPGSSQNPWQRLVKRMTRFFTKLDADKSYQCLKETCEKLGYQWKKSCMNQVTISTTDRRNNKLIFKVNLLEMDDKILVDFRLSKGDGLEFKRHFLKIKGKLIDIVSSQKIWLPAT
As to the method:
(§1) The Kinome Screening was performed by Reaction Biology Europe GmbH (http://reactionbiology.com; Freiburg i. Br., Germany).

The target of the next experiment is T2, CHK2 (Homo sapiens, UniProt O96017).
T2 construct: purchased Reaction Biology Europe GmbH (formerly ProQinase)
As to the method:
as §1

A further experiment deals with T3, DYRK1B (Homo sapiens, UniProt Q9Y463).
T3 construct: purchased Reaction Biology Europe GmbH (formerly ProQinase)
The method, then:
as §1

The target of the next experiment is T4, MET (Homo sapiens, UniProt P08581).
T4 construct: purchased Reaction Biology Europe GmbH (formerly ProQinase)
The method, then:
as §1

In the next experiment the target is T5, MKK4 (Homo sapiens, UniProt P45985).
T5 construct: purchased Reaction Biology Europe GmbH (formerly ProQinase)
T5 sequence (P45985 1-399): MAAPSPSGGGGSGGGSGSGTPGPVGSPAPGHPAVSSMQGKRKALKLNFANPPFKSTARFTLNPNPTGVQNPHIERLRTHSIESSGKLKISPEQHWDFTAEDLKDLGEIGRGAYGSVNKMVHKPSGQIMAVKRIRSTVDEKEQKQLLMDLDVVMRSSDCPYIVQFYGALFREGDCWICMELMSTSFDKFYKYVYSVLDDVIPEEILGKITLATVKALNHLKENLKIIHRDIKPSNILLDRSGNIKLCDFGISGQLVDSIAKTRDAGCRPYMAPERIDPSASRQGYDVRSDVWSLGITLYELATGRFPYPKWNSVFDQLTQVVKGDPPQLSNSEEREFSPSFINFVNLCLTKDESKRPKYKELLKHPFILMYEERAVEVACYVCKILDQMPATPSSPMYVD
The method, then: as §1

A further experiment concerns the target T6, PKCμ (Homo sapiens, UniProt Q15139).
T6 construct: purchased Reaction Biology Europe GmbH (formerly ProQinase)
T6 sequence (Q15139 1-912): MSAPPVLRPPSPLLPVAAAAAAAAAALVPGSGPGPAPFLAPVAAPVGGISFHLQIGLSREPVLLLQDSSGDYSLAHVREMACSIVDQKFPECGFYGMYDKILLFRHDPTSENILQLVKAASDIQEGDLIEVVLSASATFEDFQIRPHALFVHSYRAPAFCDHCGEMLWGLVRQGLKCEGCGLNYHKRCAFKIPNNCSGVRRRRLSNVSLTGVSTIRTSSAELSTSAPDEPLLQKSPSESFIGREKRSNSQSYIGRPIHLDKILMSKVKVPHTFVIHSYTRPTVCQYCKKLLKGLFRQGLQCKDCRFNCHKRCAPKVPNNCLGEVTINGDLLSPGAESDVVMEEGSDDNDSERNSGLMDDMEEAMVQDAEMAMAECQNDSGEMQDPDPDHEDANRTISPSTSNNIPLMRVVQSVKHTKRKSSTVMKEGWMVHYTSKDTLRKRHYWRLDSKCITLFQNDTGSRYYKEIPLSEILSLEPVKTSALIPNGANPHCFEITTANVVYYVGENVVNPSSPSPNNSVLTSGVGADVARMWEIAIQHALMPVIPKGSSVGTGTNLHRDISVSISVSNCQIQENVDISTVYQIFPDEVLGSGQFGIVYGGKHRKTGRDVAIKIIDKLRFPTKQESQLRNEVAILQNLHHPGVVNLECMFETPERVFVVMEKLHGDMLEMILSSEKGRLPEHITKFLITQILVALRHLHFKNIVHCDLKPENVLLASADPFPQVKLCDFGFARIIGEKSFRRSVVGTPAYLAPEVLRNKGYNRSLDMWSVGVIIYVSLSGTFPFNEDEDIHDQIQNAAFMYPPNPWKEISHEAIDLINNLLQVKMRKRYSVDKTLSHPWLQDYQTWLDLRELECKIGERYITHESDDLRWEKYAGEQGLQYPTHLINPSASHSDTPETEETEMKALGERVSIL
As to the method:
as §1

In a further experiment the target is T7, TTK (Homo sapiens, UniProt P33981).
T7 construct: purchased Reaction Biology Europe GmbH (formerly ProQinase)
T7 sequence (P33981 1-857): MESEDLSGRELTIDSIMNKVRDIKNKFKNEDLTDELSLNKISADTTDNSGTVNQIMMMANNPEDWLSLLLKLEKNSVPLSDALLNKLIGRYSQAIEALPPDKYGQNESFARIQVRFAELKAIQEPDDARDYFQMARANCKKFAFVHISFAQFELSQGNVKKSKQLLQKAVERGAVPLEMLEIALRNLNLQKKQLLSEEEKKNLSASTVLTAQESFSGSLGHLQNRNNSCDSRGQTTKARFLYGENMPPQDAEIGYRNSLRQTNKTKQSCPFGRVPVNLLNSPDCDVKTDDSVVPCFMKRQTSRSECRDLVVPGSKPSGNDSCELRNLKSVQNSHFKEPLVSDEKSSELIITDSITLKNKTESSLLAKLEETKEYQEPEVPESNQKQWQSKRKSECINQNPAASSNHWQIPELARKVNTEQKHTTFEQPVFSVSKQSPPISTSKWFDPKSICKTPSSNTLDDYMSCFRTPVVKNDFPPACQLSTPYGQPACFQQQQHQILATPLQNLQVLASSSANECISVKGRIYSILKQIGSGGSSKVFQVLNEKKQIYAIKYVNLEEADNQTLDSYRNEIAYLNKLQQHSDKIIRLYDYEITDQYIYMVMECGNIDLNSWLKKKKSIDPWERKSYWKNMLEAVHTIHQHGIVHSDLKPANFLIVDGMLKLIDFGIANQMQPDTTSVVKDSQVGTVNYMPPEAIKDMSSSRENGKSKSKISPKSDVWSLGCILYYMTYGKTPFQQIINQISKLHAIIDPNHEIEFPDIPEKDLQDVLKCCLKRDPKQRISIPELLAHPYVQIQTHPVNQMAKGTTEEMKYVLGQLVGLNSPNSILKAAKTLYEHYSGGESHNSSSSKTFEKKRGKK
The method, then: as §1

T4 sequence (P08581 25-1390): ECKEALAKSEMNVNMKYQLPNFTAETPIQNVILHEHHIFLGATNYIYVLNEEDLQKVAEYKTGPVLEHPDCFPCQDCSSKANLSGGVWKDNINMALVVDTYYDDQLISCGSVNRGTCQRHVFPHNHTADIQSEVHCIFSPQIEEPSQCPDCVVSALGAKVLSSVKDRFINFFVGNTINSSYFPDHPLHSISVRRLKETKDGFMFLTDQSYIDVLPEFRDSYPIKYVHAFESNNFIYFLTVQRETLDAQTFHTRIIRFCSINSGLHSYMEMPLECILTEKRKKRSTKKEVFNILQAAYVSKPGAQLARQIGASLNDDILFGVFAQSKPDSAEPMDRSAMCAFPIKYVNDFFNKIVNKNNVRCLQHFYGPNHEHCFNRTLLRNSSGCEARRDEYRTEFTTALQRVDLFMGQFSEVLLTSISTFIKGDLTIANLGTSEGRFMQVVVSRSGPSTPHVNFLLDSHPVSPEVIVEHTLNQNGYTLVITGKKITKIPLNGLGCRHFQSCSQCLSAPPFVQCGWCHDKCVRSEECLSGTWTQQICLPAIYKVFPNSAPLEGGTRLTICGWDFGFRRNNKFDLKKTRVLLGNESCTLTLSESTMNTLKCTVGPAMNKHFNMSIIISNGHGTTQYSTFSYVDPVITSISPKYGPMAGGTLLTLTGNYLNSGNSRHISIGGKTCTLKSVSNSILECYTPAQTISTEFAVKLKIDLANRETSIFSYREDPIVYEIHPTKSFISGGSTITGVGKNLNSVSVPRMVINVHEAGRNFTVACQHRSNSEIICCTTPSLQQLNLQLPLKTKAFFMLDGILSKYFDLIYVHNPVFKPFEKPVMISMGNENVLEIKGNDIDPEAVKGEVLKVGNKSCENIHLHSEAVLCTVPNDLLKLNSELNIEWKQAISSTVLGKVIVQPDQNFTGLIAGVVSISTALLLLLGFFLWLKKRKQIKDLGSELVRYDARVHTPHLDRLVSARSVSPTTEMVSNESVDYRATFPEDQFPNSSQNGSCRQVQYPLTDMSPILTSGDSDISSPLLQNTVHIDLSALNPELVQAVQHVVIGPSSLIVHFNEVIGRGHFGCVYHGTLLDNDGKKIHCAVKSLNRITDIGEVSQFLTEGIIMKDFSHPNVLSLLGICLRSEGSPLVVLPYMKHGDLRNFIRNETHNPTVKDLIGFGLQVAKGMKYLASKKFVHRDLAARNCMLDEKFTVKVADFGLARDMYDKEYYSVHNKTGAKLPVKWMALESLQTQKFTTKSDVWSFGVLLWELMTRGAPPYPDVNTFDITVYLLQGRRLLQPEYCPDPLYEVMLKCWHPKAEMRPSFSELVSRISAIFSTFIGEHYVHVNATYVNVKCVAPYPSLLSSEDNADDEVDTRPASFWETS
T3 sequence (Q9Y463 whole entry): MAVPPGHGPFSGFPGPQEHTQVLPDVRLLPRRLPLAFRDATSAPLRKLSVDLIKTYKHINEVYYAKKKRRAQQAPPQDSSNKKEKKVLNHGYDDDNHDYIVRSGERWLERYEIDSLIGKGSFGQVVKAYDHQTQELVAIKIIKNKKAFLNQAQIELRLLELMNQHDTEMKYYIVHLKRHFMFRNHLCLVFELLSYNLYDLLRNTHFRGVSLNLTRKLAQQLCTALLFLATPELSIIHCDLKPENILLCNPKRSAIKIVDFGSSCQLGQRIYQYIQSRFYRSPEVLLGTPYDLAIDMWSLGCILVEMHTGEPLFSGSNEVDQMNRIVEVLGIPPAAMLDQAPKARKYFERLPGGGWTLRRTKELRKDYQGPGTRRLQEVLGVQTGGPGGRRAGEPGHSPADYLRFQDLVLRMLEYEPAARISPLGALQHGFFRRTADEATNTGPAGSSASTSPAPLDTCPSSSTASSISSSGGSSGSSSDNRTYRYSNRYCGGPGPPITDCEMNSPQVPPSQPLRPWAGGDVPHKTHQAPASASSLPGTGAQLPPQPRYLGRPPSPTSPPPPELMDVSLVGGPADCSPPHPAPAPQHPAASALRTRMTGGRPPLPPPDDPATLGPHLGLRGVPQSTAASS
T2 sequence (O96017 whole entry): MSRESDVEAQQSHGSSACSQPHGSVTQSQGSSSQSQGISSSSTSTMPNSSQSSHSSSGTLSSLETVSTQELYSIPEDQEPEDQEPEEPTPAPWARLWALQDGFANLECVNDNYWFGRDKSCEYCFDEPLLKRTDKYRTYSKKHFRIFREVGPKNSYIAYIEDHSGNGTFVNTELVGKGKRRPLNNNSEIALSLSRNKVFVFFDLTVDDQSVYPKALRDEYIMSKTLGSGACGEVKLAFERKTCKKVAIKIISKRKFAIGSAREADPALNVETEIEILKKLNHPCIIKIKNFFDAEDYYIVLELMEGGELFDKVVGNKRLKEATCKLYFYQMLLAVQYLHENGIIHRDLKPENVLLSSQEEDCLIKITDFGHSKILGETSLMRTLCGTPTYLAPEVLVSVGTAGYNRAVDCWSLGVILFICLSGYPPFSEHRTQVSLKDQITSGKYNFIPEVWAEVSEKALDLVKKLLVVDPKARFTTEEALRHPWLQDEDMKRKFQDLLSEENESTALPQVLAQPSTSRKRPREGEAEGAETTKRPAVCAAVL

Turning to `c1ccc(CNc2cc(-c3c[nH]c4ncccc34)ccn2)cc1` [meriolin 36], the residual kinase activity is listed as 76 % of control at CHK1 (0.3 µM); 40 % of control on CHK1 (3 µM); 81 % of control on CHK2 (0.3 µM); 41 % of control at CHK2 (3 µM); 7 % of control on DYRK1B (0.3 µM); 0 % of control on DYRK1B (3 µM). Moreover, the residual kinase activity is 99 % of control at MET (0.3 µM); 48 % of control on MET (3 µM); 45 % of control at MKK4 (0.3 µM); 9 % of control at MKK4 (3 µM); 63 % of control at PKCμ (0.3 µM); 23 % of control on PKCμ (3 µM). Also, the residual kinase activity was 55 % of control at TTK (0.3 µM) and 17 % of control on TTK (3 µM).

For `COc1ccnc2[nH]cc(-c3cc(N)nc(N)c3)c12` [meriolin 16], the residual kinase activity was 96 % of control at CHK1 (0.03 µM); 87 % of control on CHK1 (0.3 µM); 90 % of control at CHK2 (0.03 µM); 82 % of control at CHK2 (0.3 µM); 8 % of control on DYRK1B (0.03 µM); 0 % of control at DYRK1B (0.3 µM). The residual kinase activity is 110 % of control on MET (0.03 µM); 106 % of control on MET (0.3 µM); 86 % of control at MKK4 (0.03 µM); 66 % of control at MKK4 (0.3 µM); 77 % of control at PKCμ (0.03 µM); 24 % of control at PKCμ (0.3 µM). The values for the residual kinase activity at TTK (0.03 µM) and on TTK (0.3 µM) were 49 % of control and 8 % of control, respectively.
